In patent EP2958918B1, “DIHYDROPTERIDINONES II” (Boehringer Ingelheim International GmbH, priority 2013, dated 2014):
pIC50: −log10 of the molar value.

Columns and labels:
Aβ total = Aβ total cellular assay: inhibition of Aβ total production in H4 neuroglioma cells stably expressing human APP695, electrochemiluminescence (Meso Scale Discovery) on supernatant; used for the ratio Aβ total IC50 / Aβ42 IC50; assay type: cell-based; settings: higher ratio = more specific inhibition of Aβ42
Protocol: (§1) Cells were plated out to near confluency. The compounds to be tested were received as 10 mM stocks in 100% DMSO. A dilution series was initially generated in 100% DMSO and then diluted 200-fold in cell culture media such that the tested concentration range was 30 µM to 0.1 nM and the final DMSO concentration was 0.5%. The diluted compounds were incubated with the cells for 22 hours in an incubator at 37°C and 5% CO2. Aβ42 as well as Aβ total levels were then measured post-incubation from the supernatant of the cells. Aβ42 levels were determined using a specific electrochemiluminescence assay provided by Meso Scale Discovery (Catalog # L21CA-1) according to the manufacturer's protocol. Aβ total levels were likewise determined using a specific electrochemiluminescence assay provided by Meso Scale Discovery (Catalog # L21ZA-1) according to the manufacturer's protocol.
(§2) In order to absolutely define the described compounds as modulators of y-Secretase as opposed to simply inhibitors of γ-Secretase, measurements of not only Aβ42 but also Aβ total are performed.

Aβ42 = Aβ42 cellular assay: inhibition of Aβ42 production in H4 neuroglioma cells stably expressing human APP695, electrochemiluminescence (Meso Scale Discovery) on supernatant; assay type: cell-based; settings: 22 hours incubation, tested range 30 µM to 0.1 nM
Protocol: as §1, §2

Row | Compound | pIC50 (Aβ42) | Ratio Aß(total)/Aß42 (Aβ total)
1 | COc1cc(Nc2ncc3c(n2)N(C)C2(CCOCC2)C(=O)N3C)ccc1-c1cnc(C)o1 [Example 1] | 6.92 | > 244
2 | Cc1ncc(-c2ccc(Nc3ncc4c(n3)N(C)C3(CCOCC3)C(=O)N4C)cn2)o1 [Example 3] | 5.27 | >6
3 | COc1cc(Nc2nc(C)c3c(n2)N(C)C2(CCOCC2)C(=O)N3C)ccc1-n1cnc(C)c1 [Example 4] | 6.54 | 101
4 | Cc1ncc(-c2ccc(Nc3nc(C)c4c(n3)N(C)C3(CCOCC3)C(=O)N4C)cn2)o1 [Example 5] | 5.49 | >9
5 | COc1cc(Nc2ncc3c(n2)N(C)C2(CCOC2)C(=O)N3C)ccc1-c1cnc(C)o1 (stereo not shown) [Example 7] | 7.02 | > 315
6 | Cc1ncc(-c2ccc(Nc3ncc4c(n3)N(C)C3(CCOC3)C(=O)N4C)cn2)o1 (stereo not shown) [Example 8] | 5.52 | >10
7 | COCCN1C(=O)C2(CCOCC2)N(C)c2nc(Nc3ccc(-c4ccnc(C)c4)cc3)ncc21 [Example 12] | 5.72 | 11
8 | COCCN1C(=O)C2(CCOCC2)N(C)c2nc(Nc3ccc(-n4cnc(C)n4)c(OC)c3)ncc21 [Example 13] | 5.66 | >13
9 | COCCN1C(=O)C2(CCOC2)N(C)c2nc(Nc3ccc(-c4ccnc(C)c4)cc3)ncc21 (stereo not shown) [Example 14] | 5.85 | > 27
10 | COCCN1C(=O)C2(CCOC2)N(C)c2nc(Nc3ccc(-n4cnc(C)n4)c(OC)c3)ncc21 (stereo not shown) [Example 15] | 5.68 | >15
11 | Cc1cn(-c2ccc(Nc3ncc4c(n3)N(C)C3(CCOC3)C(=O)N4C)cc2C#N)cn1 (stereo not shown) [Example 18] | 6.52 | 145
12 | Cc1cn(-c2ccc(Nc3ncc4c(n3)NC3(CCOC3)C(=O)N4C)cc2C#N)cn1 (stereo not shown) [Example 19] | 6.55 | > 257
13 | COc1cc(Nc2ncc3c(n2)NC2(CCOC2)C(=O)N3C)ccc1-n1cnc(C)c1 (stereo not shown) [Example 20] | 6.10 | > 90
14 | COc1cc(Nc2ncc3c(n2)NC2(CCOC2)C(=O)N3C2COC2)ccc1-n1cnc(C)c1 (stereo not shown) [Example 28] | 4.98 | >3
15 | COc1cc(Nc2ncc3c(n2)NC2(CCOC2)C(=O)N3CCC(C)C)ccc1-n1cnc(C)c1 (stereo not shown) [Example 29] | 6.57 | 39
16 | COCCN1c2nc(Nc3ccc(-n4cnc(C)c4)c(OC)c3)nc(CC(C)C)c2N(C)C(=O)C12CCOC2 (stereo not shown) [Example 30] | 7.00 | 96

Row | Compound | pIC50 (Aβ42) | Ratio Aß(total)/Aß42 (Aβ total)
17 | COCCN1c2nc(Nc3ccc(-c4cnc(C)o4)c(OC)c3)nc(CC(C)C)c2N(C)C(=O)C12CCOC2 (stereo not shown) [Example 31] | 6.74 | 47
18 | COc1cc(Nc2nc(CC(C)C)c3c(n2)N(C)C2(CCOC2)C(=O)N3C)ccc1-n1cnc(C)c1 (stereo not shown) [Example 32] | 7.10 | 124
19 | COc1cc(Nc2nc(CC(C)C)c3c(n2)NC2(CCOC2)C(=O)N3)ccc1-n1cnc(C)c1 (stereo not shown) [Example 33] | 6.85 | 124
20 | CCc1nc(Nc2ccc(-n3cnc(C)c3)c(OC)c2)nc2c1N(C)C(=O)C1(CCOC1)N2C (stereo not shown) [Example 34] | 7.14 | 115
21 | CCc1nc(Nc2ccc(-n3cnc(C)c3)c(C#N)c2)nc2c1N(C)C(=O)C1(CCOC1)N2C (stereo not shown) [Example 35] | 7.12 | 180
22 | COc1cc(Nc2ncc3c(n2)N(C)C2(CCc4ccccc4C2)C(=O)N3C)ccc1-n1cnc(C)c1 (stereo not shown) [Example 36] | 7.16 | 179
23 | Cc1ncc(-c2ccc(Nc3ncc4c(n3)N(C)C3(CCc5ccccc5C3)C(=O)N4C)cn2)o1 (stereo not shown) [Example 37] | 6.03 | 29
24 | COc1cc(Nc2ncc3c(n2)N(C)C2(CCOC2)C(=O)N3c2ccc(F)cc2)ccc1-n1cnc(C)c1 (stereo not shown) [Example 37a] | 7.22 | 307
25 | COc1cc(Nc2ncc3c(n2)N(C)C2(CCOCC2)C(=O)N3c2cc(F)cc(F)c2)ccc1-n1cnc(C)c1 [Example 37c] | 6.94 | 75
26 | COc1cc(Nc2nc3c(c(C(F)(F)F)n2)N(C)C(=O)C2(CCOCC2)N3C)ccc1-n1cnc(C)c1 [Example 37d] | 6.09 | >36
27 | COc1cc(Nc2ncc3c(n2)N(C)C2(CCOCC2)C(=O)N3c2ccc(F)cc2)ccc1-n1cnc(C)c1 [Example 37f] | 6.84 | 55
28 | CCc1nc(Nc2cnc(-n3cnc(C)c3)c(OC)c2)nc2c1N(C)C(=O)C1(CC1)N2C [Example 37i] | 6.82 | 54
29 | COc1cc(Nc2ncc3c(n2)N(C)C2(CCOCC2)C(=O)N3Cc2ccc(F)cc2F)ccc1-n1cnc(C)c1 [Example 37j] | 7.14 | 57
30 | COc1cc(Nc2ncc3c(n2)N(C)C2(CCOC2)C(=O)N3C(C)c2ccccn2)ccc1-n1cnc(C)c1 (stereo not shown) [Example 37k] | 6.92 | 88
31 | COc1cc(Nc2nc3c(c(C(C)(C)O)n2)N(C)C(=O)C2(CCOC2)N3C)ccc1-c1cnc(C)o1 (stereo not shown) [Example 40] | 6.31 | > 62
32 | COc1cc(Nc2ncc3c(n2)N(C)C2(CCC2)C(=O)N3CC(F)(F)F)ccc1-c1cnc(C)o1 [Example 45] | 7.24 | > 517

Continued, in another order:

Row | pIC50 (Aβ42) | Compound | Ratio Aß(total)/Aß42 (Aβ total)
33 | 6.72 | COc1cc(Nc2ncc3c(n2)N(C)C2(CCOCC2)C(=O)N3C)ccc1-n1cnc(C)c1 [Example 2] | 89
34 | 6.66 | COc1cc(Nc2ncc3c(n2)N(C)C2(CCOC2)C(=O)N3C)ccc1-n1cnc(C)c1 (stereo not shown) [Example 6] | > 136
35 | 6.52 | COc1cc(Nc2ncc3c(n2)N(C)C2(CCOCC2)C(=O)N3)ccc1-n1cnc(C)c1 [Example 9] | > 101
36 | 6.21 | COc1cc(Nc2ncc3c(n2)N(C)C2(CCOC2)C(=O)N3)ccc1-n1cnc(C)c1 (stereo not shown) [Example 10] | 46
37 | 6.51 | COCCN1C(=O)C2(CCOCC2)N(C)c2nc(Nc3ccc(-n4cnc(C)c4)c(OC)c3)ncc21 [Example 11] | 26
38 | 6.74 | COCCN1C(=O)C2(CCOC2)N(C)c2nc(Nc3ccc(-n4cnc(C)c4)c(OC)c3)ncc21 (stereo not shown) [Example 16] | 88
39 | 7.03 | CCCN1C(=O)C2(CCOCC2)N(C)c2nc(Nc3ccc(-n4cnc(C)c4)c(OC)c3)ncc21 [Example 17] | 65
40 | 6.66 | COc1cc(Nc2ncc3c(n2)N(C)C2(CCOC2)C(=O)N3C2COC2)ccc1-n1cnc(C)c1 (stereo not shown) [Example 21] | 114
41 | 5.48 | COc1cc(Nc2ncc3c(n2)NC2(CCOC2)C(=O)N3CC2CCOCC2)ccc1-n1cnc(C)c1 (stereo not shown) [Example 22] | >9
42 | 7.41 | COc1cc(Nc2ncc3c(n2)N(C)C2(CCOC2)C(=O)N3C(C)C)ccc1-n1cnc(C)c1 (stereo not shown) [Example 23] | 599
43 | 5.52 | COc1cc(Nc2ncc3c(n2)N(CC2CCOCC2)C2(CCOC2)C(=O)N3CC2CCOCC2)ccc1-n1cnc(C)c1 (stereo not shown) [Example 24] | >10
44 | 6.54 | COc1cc(Nc2ncc3c(n2)N(C)C2(COCCOC2)C(=O)N3)ccc1-n1cnc(C)c1 [Example 25] | 91
45 | 6.46 | COc1cc(Nc2ncc3c(n2)N(C)C2(CCOC2)C(=O)N3CC2CCOCC2)ccc1-n1cnc(C)c1 (stereo not shown) [Example 26] | 46
46 | 6.57 | COc1cc(Nc2ncc3c(n2)N(C)C2(COCCOC2)C(=O)N3C)ccc1-n1cnc(C)c1 [Example 27] | > 112
47 | 6.76 | COc1cc(Nc2ncc3c(n2)N(C)C2(CCOCC2)C(=O)N3C2CC2)ccc1-n1cnc(C)c1 [Example 37b] | 47
48 | 7.07 | COc1cc(Nc2ncc3c(n2)N(C)C2(CCOC2)C(=O)N3CC(F)(F)F)ccc1-n1cnc(C)c1 (stereo not shown) [Example 37e] | 82
49 | 6.71 | COc1cc(Nc2ncc3c(n2)N(C)C2(CCOC2)C(=O)N3C2CC2)ccc1-n1cnc(C)c1 (stereo not shown) [Example 37g] | 58
50 | 6.91 | COc1cc(Nc2ncc3c(n2)N(C)C2(CCOC2)C(=O)N3CC(F)F)ccc1-n1cnc(C)c1 (stereo not shown) [Example 37h] | 85
51 | 6.39 | COc1cc(Nc2ncc3c(n2)N(C2CCCC2)C2(CC2)C(=O)N3C)ccc1-n1cnc(C)c1 [Example 38] | >15
52 | 7.11 | COc1cc(Nc2ncc3c(n2)N(C)C2(CCCCOC2)C(=O)N3C)ccc1-n1cnc(C)c1 (stereo not shown) [Example 39] | 91
53 | 5.91 | COc1cc(Nc2ncc3c(n2)N(C)C2(COC2)C(=O)N3C)ccc1-n1cnc(C)c1 [Example 41] | > 25
54 | 6.69 | COc1cc(Nc2ncc3c(n2)N(C)C2(CCCOCC2)C(=O)N3C)ccc1-n1cnc(C)c1 (stereo not shown) [Example 42] | 51
55 | 6.91 | COc1cc(Nc2ncc3c(n2)N(C)C2(CCC2)C(=O)N3C)ccc1-n1cnc(C)c1 [Example 43] | 237
56 | 7.07 | COc1cc(Nc2ncc3c(n2)N(C)C2(CC2)C(=O)N3CC(F)(F)F)ccc1-n1cnc(C)c1 [Example 44] | 50
